On the set-up of data set [1]: method as in earlier work. The settings on record: patients after organ transplantation, ref Prikis and Cameron, 2022, Liu et al., 2023, Michael et al.; cited from earlier work.
For data set [2] the following is noted: ref Nieminen et al., 2010; cited from earlier work.
A short description of data set [3]: Drug interaction study: pharmacokinetics of firmonertinib and AST-5902 in rats with or without nirmatrelvir and ritonavir (paxlovid). The settings on record: for AUC(0-inf) / AUC(0-t) / Cmax / Tmax / half-life / CL/F / MRT last / MRT inf / Vd/F: male, Sprague-Dawley, rat, plasma, po, 7.2 mg/kg, rat plasma; for CL/F: read-out: CLz/F (converted); for MRT last: read-out: MRT(0-t); for MRT inf: read-out: MRT(0-∞); for Vd/F: read-out: Vz/F. It counts as in vivo, Sprague-Dawley (SD) rats. The protocol: The experimental animals for pharmacokinetics were eighteen male Sprague-Dawley (SD) rats (6–8 weeks old), weighing 180–220 g, purchased from Beijing Vital River Laboratory Animal Technology Co., Ltd. All animal-related experimental operations and care were performed in accordance with the Guide for the Care and Use of Laboratory Animals and were approved by the Animal Research Ethics Committee of Wenzhou Medical University (wydw2022-0184). All SD rats were kept in an SPF animal laboratory and were provided with adequate feed and water until all rats reached the required body weight for the experiment. […] Eighteen SD rats were randomly and equally divided into three groups of six rats each. Group C rats (long-term administration group) were given 55 mg/kg nirmatrelvir and 20 mg/kg ritonavir by gavage every 12 h for 5 days. Groups B (single dose administration group) and A (control group) were also given the same amount of 0.5% CMC-Na every 12 h for 5 days. Prior to the pharmacokinetic experiments, all rats were fasted for 12 h, but drinking water was not prohibited. On the day of the experiment, 55 mg/kg nirmatrelvir and 20 mg/kg ritonavir were given once by gavage to rats in group B and group C. The same dose of 0.5% CMC-Na was given to group A rats. […] Blood was collected using heparin lithium-anticoagulant tubes and then centrifuged for 10 min at 13,000 rpm at 4°C. Subsequently, the upper plasma fraction was transferred to a clean centrifuge tube and placed in a −80°C refrigerator for storage until detection.
The pharmacokinetic parameters of three groups were analyzed by single factor analysis of variance using SPSS 28.0 software. A p value of less than 0.05 were considered significant difference between the two groups.

A short description of data set [4]: Stability in rat plasma under different storage conditions. It counts as in vitro ADME. The settings on record: for Stability RE (%), 4°C / Stability RE (%), Room temperature: rat plasma; for Stability RE (%), 4°C: 4°C (24 h); for Stability RE (%), Room temperature: room temperature (4 h). The protocol: The stability of the method was assessed through the determination of low, medium and high concentration rat plasma quality control samples under various storage conditions. […] The stability of the samples was determined by the precision of measurement results, and the samples were considered stable when the CV% and RE% were both below 15%.

On the set-up of data set [5]: method as in Heng et al., 2021. The following applies: itraconazole (CYP3A4 inhibitor); clinical study; ref Heng et al., 2021; cited from earlier work.
Details of data set [6]: method as in Zhu et al., 2021. The following applies: therapeutic doses of rifampicin (strong CYP3A4 inducer); clinical study; ref Zhu et al., 2021; cited from earlier work.
In another data set the test system is CYP3A4. Set-up: method as in Liu et al., 2020. The settings on record: ref Liu et al., 2020, cited from earlier work.
Details of data set [7]: method as in Boosman et al., 2022. The settings on record: ref Boosman et al., 2022; cited from earlier work.
[8] abbreviates: Group A control: single 7.2 mg/kg firmonertinib by gavage alone.
The mark [9] stands for this setting: Group B: single dose 55 mg/kg nirmatrelvir and 20 mg/kg ritonavir, then 7.2 mg/kg firmonertinib by gavage.
The mark [10] stands for this setting: Group C: 5 days twice a day 55 mg/kg nirmatrelvir and 20 mg/kg ritonavir, then 7.2 mg/kg firmonertinib by gavage.
The mark [11] stands for this setting: rats, long-term (5 days) nirmatrelvir and ritonavir vs firmonertinib monotherapy group.
[12] abbreviates: rats, single dose nirmatrelvir and ritonavir vs firmonertinib monotherapy group.

Read-outs that look alike come from different tables or passages of the source.

With `C=CC[C@@H]1/C=C(\C)C[C@H](C)C[C@H](OC)[C@H]2O[C@@](O)(C(=O)C(=O)N3CCCC[C@H]3C(=O)O[C@H](/C(C)=C/[C@@H]3CC[C@@H](O)[C@H](OC)C3)[C@H](C)[C@@H](O)CC1=O)[C@H](C)C[C@@H]2OC` [tacrolimus], the “Concentration of tacrolimus during Paxlovid treatment” value in data set [1] was “increase significantly”.
In the case of `COc1ccc2c3c1O[C@H]1C(=O)CC[C@@]4(O)[C@@H](C2)N(C)CC[C@]314` [oxycodone], in data set [2], the “AUC of oxycodone when administered simultaneously with ritonavir” value is reported as “triples”.
Turning to `C=CC(=O)Nc1cc(Nc2nccc(-c3cn(C)c4ccccc34)n2)c(OCC(F)(F)F)nc1N(C)CCN(C)C` [firmonertinib], in data set [3] (setting [8]), the AUC(0-inf) was determined as 367 ± 89.7 ng·h/mL, the area under the curve AUC(0-t) was found to be 270 ± 28.4 ng·h/mL, the Cmax stood at 13.5 ± 4.43 ng/mL and the Tmax is 6.33 ± 1.97 h. In data set [3] (setting [8]), the half-life is 2380 ± 2140 min, the CL/F is 341 mL/min/kg, the MRT last was determined as 24.5 ± 2.43 h and the MRT inf was 61.8 ± 44.7 h. Further, in data set [3] (setting [8]), the Vd/F turned out to be 1010 L/kg. In addition, in data set [3] (setting [9]), the AUC(0-inf) was 486 ± 103 ng·h/mL, the AUC(0-t) worked out at 456 ± 125 ng·h/mL, the highest concentration (Cmax) amounted to 27 ± 9.75 ng/mL and the Tmax was 6 ± 2.19 h. In data set [3] (setting [9]), the half-life is 973 ± 406 min, the CL/F is 256 mL/min/kg, the MRT last stood at 19.2 ± 2.34 h and the MRT inf stood at 28.4 ± 6.88 h. In addition, the Vd/F in data set [3] (setting [9]) was 374 ± 209 L/kg. In data set [3] (setting [10]), the AUC(0-inf) is 458 ± 46 ng·h/mL, the AUC(0-t) amounted to 421 ± 21.4 ng·h/mL, the Cmax came out at 27.9 ± 4.22 ng/mL and the Tmax was found to be 5 ± 1.1 h. In data set [3] (setting [10]), the half-life was 1070 ± 355 min, the CL/F was 264 mL/min/kg, the MRT last is 19.6 ± 2.48 h and the MRT inf came out at 30.3 ± 5.96 h. The Vd/F in data set [3] (setting [10]) was 400 ± 95.8 L/kg. The “Difference in main pharmacokinetic data between single-dose and long-term nirmatrelvir and ritonavir groups” value in data set [3] (rats, P > 0.05) is recorded as “no significant differences”. In data set [3] (setting [11]), the “AUC(0-t) of firmonertinib increased by” value is listed as 1.55 times, the “CLz/F of firmonertinib decreased by” value is listed as 23%, the “Cmax of firmonertinib increased by” value is listed as 2.05 times and the “MRT(0-t) of firmonertinib decreased by” value amounted to 20%. Further, in data set [3] (setting [11]), the “MRT(0-∞) of firmonertinib decreased by” value came out at 51%, the “Vz/F of firmonertinib decreased by” value is 61% and the “t1/2 of firmonertinib decreased by” value was 55%. Besides, in data set [3] (setting [12]), the “AUC(0-t) of firmonertinib increased by” value was determined as 1.68 times, the “CLz/F of firmonertinib decreased by” value came to 26%, the “Cmax of firmonertinib increased by” value stood at 1.99 times and the “MRT(0-t) of firmonertinib decreased by” value came out at 22%. Moreover, in data set [3] (setting [12]), the “MRT(0-∞) of firmonertinib decreased by” value is on record as 55%, the “Vz/F of firmonertinib decreased by” value was found to be 64% and the “t1/2 of firmonertinib decreased by” value is 60%. In data set [4] (0.3 ng/mL), the “Stability RE (%), 4°C” value is −4.98% and the “Stability RE (%), Room temperature” value was 7.47%. In data set [4] (40 ng/mL), the “Stability RE (%), 4°C” value is on record as 2.22% and the “Stability RE (%), Room temperature” value is recorded as −0.57%. Further, in data set [4] (400 ng/mL), the “Stability RE (%), 4°C” value is recorded as −2.90% and the “Stability RE (%), Room temperature” value was found to be 2.63%. Also, the “Stability in rat plasma” value in data set [4] (short-term and long-term storage conditions) is on record as “remain stable”. Further, in data set [5], the “Exposure of firmonertinib on co-administration with itraconazole” value is on record as “significantly increases”. Besides, the “Exposure of firmonertinib on co-administration with rifampicin” value in data set [6] is reported as “significantly reduced”. Also, the Main metabolizing enzyme entry in the data set on CYP3A4 (in vitro experiments, to N-demethylated metabolite AST-5902) is recorded as “metabolized mainly by CYP3A4”. Moreover, in the data set on CYP3A4 (previous studies), the “Relation to CYP3A4” value is “both a substrate and an inducer of CYP3A4”.
Take `C#Cc1cccc(Nc2ncnc3cc(OCCOC)c(OCCOC)cc23)c1` [erlotinib]: the “Pharmacokinetic exposure of 75 mg erlotinib orally with ritonavir versus 150 mg erlotinib orally” value in data set [7] is “comparable”.
